Where two headings read alike, the source gives them in different places.
Experiments:
[1] = 600 mg every 8 weeks, intramuscular; cited from earlier work
HIV [2] = details: from non-human primate efficacy studies; cited from earlier work
[3] = paste 50% TAF / 50% PEG 400
Procedure: Implants were fabricated using an ePTFE tubing skin (40 mm length, 2.0 mm I.D., 0.18 mm wall thickness) and a paste kernel composed of 50% TAF and 50% PEG 400 (w/w); the tube ends were sealed. In vitro release studies were carried out in 100 mL of release media (0.1% solutol HS 15 in 1×PBS) at 37° C. in an orbital shaking incubator at 125 RPM. Media was changed as required to keep TAF concentration at least 50-fold below saturation to maintain sink conditions.

[4] = monoolein (MYVEROL 18-92K) paste, FIG. 30B
Procedure: In vitro release studies were carried out in 100 mL of release media (0.1% solutol HS 15 in 1×PBS) at 37° C. in an orbital shaking incubator at 125 RPM. Media was changed as required to keep TAF concentration at least 50-fold below saturation to maintain sink conditions.

HIV [5] = details: target 50 fmol TFV-DP per million PBMCs; cited from earlier work
HIV [6] = details: cited from earlier work
[7] = kernel 70% TAF / 30% triethyl citrate
Procedure: For both implant types, kernels consisted of 70% TAF and 30% triethyl citrate (w/w). Skins used custom tube extrusions of polyurethane [Pellethane® 2363-55DE (Lubrizol, Inc.); 25 mm length, 2.2 mm I.D., 0.13 mm wall thickness] and silicone [MED-4765 (Nusil, Inc.); 25 mm length, 2.1 mm I.D., 0.13 mm wall thickness]. The implant ends were sealed with MEDS-4213 (Nusil, Inc.) silicone adhesive. In vitro release studies were carried out in 100 mL of release media (0.5% solutol HS 15 in 1×PBS) at 37° C. in an orbital shaking incubator at 125 RPM. Media was changed as required to keep TAF concentration at least 50-fold below saturation to maintain sink conditions.

[8] = TAF powder, no excipients, PBS, 37° C.
Procedure: Segments (25 mm long) of the ePTFE tubes listed in TABLE 1 were cut, and approximately 3 mm of each end of the tube were prepared for sealing using FluoroEtch primer (Action Technologies, Pittston, Pa.) according to manufactures instructions. The tubes were then filled with tenofovir alafenamide (TAF) powder. No other excipients were used. The mass of TAF per implant varied between 20 and 70 mg depending on the experiment. The filled implants were sealed at both ends by placing a drop of Permabond 105 cyanoacrylate adhesive (Permabond Engineering Adhesives, Pottstown, Pa., USA) inside each end of the tube and crimping the end closed for 30 sec to allow the adhesive to cure and form a tight seal. Implants were kept at room temperature (ca. 23° C.) for 24 hours to allow the adhesive bond to reach full strength. The TAF in vitro release kinetics from the loaded implants was investigated by immersing the device in a solution consisting of phosphate buffered saline (PBS, 1×, 100 mL) containing sodium azide (0.01% w/v) at 37° C. with orbital shaking at 125 RPM for 30 days. The concentration of TAF in the release media was measured by UV-vis absorption spectroscopy (λmax 262 nm).

[9] = remark: listed apart in the source
Procedure: The concentration of TAF in the release media was measured by UV-vis absorption spectroscopy (λmax 262 nm).

In the case of `C[C@H]1CO[C@@H]2Cn3cc(C(=O)NCc4ccc(F)cc4F)c(=O)c(O)c3C(=O)N12` [CAB, Cabotegravir], the “participants with trough concentrations above 1× PA-IC90” value [1] is given as no less than 95%, the “participants with trough concentrations above 4× PA-IC90” value [1] is given as no less than 80% and the “steady state plasma concentration target, four times the protein adjusted IC90 (PA-IC90)” value (HIV [2]) is given as 0.66 µg/mL.

With `CC(C)OC(=O)[C@H](C)N[P@](=O)(CO[C@H](C)Cn1cnc2c(N)ncnc21)Oc1ccccc1` [TAF, Tenofovir alafenamide] the TAF release rate ([3]; ePTFE density 0.47 g cm^−3) was 0.51 mg/day, the TAF release rate ([3]; ePTFE density 0.84 g cm^−3) was 0.065 mg/day and the “TAF delivered linearly over 80 days” value (blended with PEG 400) was “ca. 5 mg”. For the same molecule, the “TAF delivered from the implants over the first month” value (blended with TEC) was 60 mg, the “TAF delivered in less than the first day” value (blended with TEC) was 5 mg and the “slope (release rate), simple linear regression” value (paste TAF 77% w/w with PEG 400 23% w/w, ePTFE 0.84 g cm^−3, 40 mm implant) was 54.4 µg/day. The “effect of monoolein paste on release kinetics through ePTFE tubes relative to other hydrophobic oils” value [4] was “increasing the rate of drug release”, the “linear subcutaneous release rate leading to protective TFV-DP PBMC concentrations” value (HIV [5]) was 0.5 mg/day and the “release rate that could be protective” value (HIV [6]) was “ca. 0.3 mg d^−1”. The “release rate, linear fit days 20-160” value ([7]; polyurethane skin (Pellethane 2363-55DE)) was 0.079 mg/day, the “release rate, linear fit days 20-160” value ([7]; silicone skin (MED-4765)) was 0.035 mg/day and the “daily release rate (slope of linear regression, best fit value±SE)” value ([8]; ePTFE tube density 0.34 g cm^−3) was 1.22 ± 0.023 mg/day. For the same molecule, the “daily release rate (slope of linear regression, best fit value±SE)” value ([8]; ePTFE tube density 0.47 g cm^−3) was 0.40 ± 0.0087 mg/day, the “daily release rate (slope of linear regression, best fit value±SE)” value ([8]; ePTFE tube density 0.84 g cm^−3) was 0.58 ± 0.0089 mg/day and the “daily release rate (slope of linear regression, best fit value±SE)” value ([8]; ePTFE tube density 1.13 g cm^−3) was 0.12 ± 0.0037 mg/day. The “release behaviour of coated sponges” value ([9]; PDMS sponges coated with DL-PLA, L-PLA or PCL) was “controlled and tuned over 15 d” and the “time for drug release from TAF-impregnated sponges” value ([9]; no polymer coating applied) was “under 1 d”.

Source: US20230017712A1, “SUSTAINED RELEASE DRUG DELIVERY DEVICE” (OAK CREST INSTITUTE OF SCIENCE, priority 2019, published 2023)
